From patent US20230081426A1, “COMPOUNDS AND METHODS FOR KRAS MODULATION AND INDICATIONS THEREFOR” (Plexxikon Inc., priority 2020, published 2023)

Legend:
[1] = target: T1, G12D-mutant human KRAS (amino acid residues 1-188) (Homo sapiens, UniProt P01116, G12D); assay: KRAS Binding Disruption Assay (AlphaScreen; biotinylated KRpep-2d analogue or RAF1-RBD), G12D; details: KRAS G12D; geometric mean; read-out: KRAS GMean IC50 (uM) MUTATION: G12D
T1 construct: G12D or G12C-mutant human KRAS (amino acid residues 1-188) with FLAG tag; made in house; host or cells: E. coli
Procedure, shortened: (§1)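 AlphaScreen readout: signal falls as compound displaces biotinylated KRpep-2d analogue or RAF1-RBD from mutant KRAS. Both partners at 5-20 nM, 1 h binding at 25° C, then 10 μg/mL Anti-Flag acceptor and streptavidin donor beads for 1 h. IC50 by nonlinear regression of % inhibition.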

[2] = target: T2, G12C-mutant human KRAS (amino acid residues 1-188) (Homo sapiens, UniProt P01116, G12C); assay: KRAS Binding Disruption Assay (AlphaScreen; biotinylated KRpep-2d analogue or RAF1-RBD), G12C; details: geometric mean, read-out: KRAS GMean IC50 (uM) MUTATION: G12C
T2 construct: G12D or G12C-mutant human KRAS (amino acid residues 1-188) with FLAG tag; made in house; host or cells: E. coli
Procedure, shortened: as §1

[3] = target: T3, G12V-mutant human KRAS (amino acid residues 1-188) (Homo sapiens, UniProt P01116, G12V); assay: KRAS Binding Competition Assay (AlphaScreen; biotinylated KRpep-2d analogue), G12V; details: geometric mean, read-out: KRAS GMean IC50 (uM) MUTATION: G12V
T3 construct: G12V-mutant human KRAS (amino acid residues 1-188) with FLAG tag was purified from E. coli; made in house; host or cells: E. coli

With `CCCNS(=O)(=O)N1[C@@H]2CC[C@H]1CN(c1nc(OCC34CCCN3CCC4)nc3cc(-c4cc(O)cc5ccccc45)ccc13)C2` [P-0096, (1R,5S)-3-(7-(3-hydroxynaphthalen-1-yl)-2-((tetrahydro-1H-pyrrolizin-7a(5H)-yl)methoxy)quinazolin-4-yl)-N-propyl-3,8-diazabicyclo[3.2.1]octane-8-sulfonamide] the IC50 [1] was 0.0001 to 10 µM, the IC50 [2] was 0.0001 to 10 µM and the IC50 [3] was 10 to 100 µM.
With `O=C(c1n[nH]c(=O)[nH]1)N1[C@@H]2CC[C@H]1CN(c1nc(OCC34CCCN3CCC4)nc3cc(-c4cc(O)cc5ccccc45)ccc13)C2` [P-0099, 5-((1R,5S)-3-(7-(3-hydroxynaphthalen-1-yl)-2-((tetrahydro-1H-pyrrolizin-7a(5H)-yl)methoxy)quinazolin-4-yl)-3,8-diazabicyclo[3.2.1]octane-8-carbonyl)-2,4-dihydro-3H-1,2,4-triazol-3-one] the IC50 [1] was 0.0001 to 10 µM, the IC50 [2] was 0.0001 to 10 µM and the IC50 [3] was 0.0001 to 10 µM.
For `NCC(O)CC(=O)N1[C@@H]2CC[C@H]1CN(c1nc(OCC34CCCN3CCC4)nc3cc(-c4cc(O)cc5ccccc45)ccc13)C2` (stereo partly drawn) [P-0100, 4-amino-3-hydroxy-1-((1R,5S)-3-(7-(3-hydroxynaphthalen-1-yl)-2-((tetrahydro-1H-pyrrolizin-7a(5H)-yl)methoxy)quinazolin-4-yl)-3,8-diazabicyclo[3.2.1]octan-8-yl)butan-1-one], the IC50 [1] was 0.0001 to 10 µM, the IC50 [2] was 0.0001 to 10 µM and the IC50 [3] was 0.0001 to 10 µM.
`Oc1cc(-c2ccc3c(N4C[C@H]5CC[C@@H](C4)N5)nc(OCC45CCCCN4CCC5)nc3c2)c2ccccc2c1` (stereo partly drawn) [P-0102, 4-(4-((1R,5S)-3,8-diazabicyclo[3.2.1]octan-3-yl)-2-((hexahydroindolizin-8a(1H)-yl)methoxy)quinazolin-7-yl)naphthalen-2-ol] was tested, and the IC50 [1] was 0.0001 to 10 µM, the IC50 [2] was 0.0001 to 10 µM and the IC50 [3] was 0.0001 to 10 µM.
Molecule `CN1CCC[C@H]1COc1nc(N2C[C@H]3CC[C@@H](C2)N3C(N)=O)c2ccc(-c3cc(O)cc4ccccc34)c(F)c2n1` [P-0103, (1R,5S)-3-(8-fluoro-7-(3-hydroxynaphthalen-1-yl)-2-(((S)-1-methylpyrrolidin-2-yl)methoxy)quinazolin-4-yl)-3,8-diazabicyclo[3.2.1]octane-8-carboxamide] has an IC50 [1] of 0.0001 to 10 µM, an IC50 [2] of 0.0001 to 10 µM and an IC50 [3] of 0.0001 to 10 µM.
`CN1CCC[C@H]1COc1nc(N2C[C@H]3CC[C@@H](C2)N3C(=O)NC2CCNC2)c2ccc(-c3cc(O)cc4ccccc34)c(F)c2n1` (stereo partly drawn) [P-0106, (1R,5S)-3-(8-fluoro-7-(3-hydroxynaphthalen-1-yl)-2-(((S)-1-methylpyrrolidin-2-yl)methoxy)quinazolin-4-yl)-N-(pyrrolidin-3-yl)-3,8-diazabicyclo[3.2.1]octane-8-carboxamide] was tested, and the IC50 [1] was 0.0001 to 10 µM, the IC50 [2] was 0.0001 to 10 µM and the IC50 [3] was 0.0001 to 10 µM.
`O=C(CC1CCNC1)N1[C@@H]2CC[C@H]1CN(c1nc(OCC34CCCN3CCC4)nc3cc(-c4cc(O)cc5ccccc45)ccc13)C2` (stereo partly drawn) [P-0110, 1-((1R,5S)-3-(7-(3-hydroxynaphthalen-1-yl)-2-((tetrahydro-1H-pyrrolizin-7a(5H)-yl)methoxy)quinazolin-4-yl)-3,8-diazabicyclo[3.2.1]octan-8-yl)-2-(pyrrolidin-3-yl)ethan-1-one] was tested, and the IC50 [1] was 0.0001 to 10 µM, the IC50 [2] was 0.0001 to 10 µM and the IC50 [3] was 0.0001 to 10 µM.
`CN1CCC[C@H]1COc1nc(N2CC3CCC(C2)N3C(=O)Cc2ccc(N)cc2)c2ccc(-c3cc(O)cc4ccccc34)cc2n1` [P-0115] gave an IC50 [1] of 0.0001 to 10 µM, an IC50 [2] of 0.0001 to 10 µM and an IC50 [3] of 10 to 100 µM.
`CN1CCN(CCC(=O)N2[C@@H]3CC[C@H]2CN(c2nc(OC[C@@H]4CCCN4C)nc4cc(-c5cc(O)cc6ccccc56)ccc24)C3)CC1` [P-0116, 1-((1R,5S)-3-(7-(3-hydroxynaphthalen-1-yl)-2-(((S)-1-methylpyrrolidin-2-yl)methoxy)quinazolin-4-yl)-3,8-diazabicyclo[3.2.1]octan-8-yl)-3-(4-methylpiperazin-1-yl)propan-1-one] showed an IC50 [1] of 0.0001 to 10 µM, an IC50 [2] of 10 to 100 µM and an IC50 [3] of 10 to 100 µM.
Molecule `CN1CCC[C@H]1COc1nc(N2C[C@H]3CC[C@@H](C2)N3C(=O)Cc2c[nH]cn2)c2ccc(-c3cc(O)cc4ccccc34)cc2n1` [P-0117, 1-((1R,5S)-3-(7-(3-hydroxynaphthalen-1-yl)-2-(((S)-1-methylpyrrolidin-2-yl)methoxy)quinazolin-4-yl)-3,8-diazabicyclo[3.2.1]octan-8-yl)-2-(1H-imidazol-4-yl)ethan-1-one] has an IC50 [1] of 0.0001 to 10 µM, an IC50 [2] of 0.0001 to 10 µM and an IC50 [3] of 0.0001 to 10 µM.
Work on `CN1CCC[C@H]1COc1nc(N2C[C@H]3CC[C@@H](C2)N3C(=O)CN2CCCC2)c2ccc(-c3cc(O)cc4ccccc34)cc2n1` [P-0118, 1-((1R,5S)-3-(7-(3-hydroxynaphthalen-1-yl)-2-(((S)-1-methylpyrrolidin-2-yl)methoxy)quinazolin-4-yl)-3,8-diazabicyclo[3.2.1]octan-8-yl)-2-(pyrrolidin-1-yl)ethan-1-one] yielded an IC50 [1] of 0.0001 to 10 µM, an IC50 [2] of 0.0001 to 10 µM and an IC50 [3] of 10 to 100 µM.
`CN1CCN(CCCC(=O)N2[C@@H]3CC[C@H]2CN(c2nc(OC[C@@H]4CCCN4C)nc4cc(-c5cc(O)cc6ccccc56)ccc24)C3)CC1` [P-0119, 1-((1R,5S)-3-(7-(3-hydroxynaphthalen-1-yl)-2-(((S)-1-methylpyrrolidin-2-yl)methoxy)quinazolin-4-yl)-3,8-diazabicyclo[3.2.1]octan-8-yl)-4-(4-methylpiperazin-1-yl)butan-1-one] showed an IC50 [1] of 0.0001 to 10 µM, an IC50 [2] of 0.0001 to 10 µM and an IC50 [3] of 10 to 100 µM.
`CN1CCC[C@H]1COc1nc(N2C[C@H]3CC[C@@H](C2)N3C(=O)CCn2cccn2)c2ccc(-c3cc(O)cc4ccccc34)cc2n1` [P-0120, 1-((1R,5S)-3-(7-(3-hydroxynaphthalen-1-yl)-2-(((S)-1-methylpyrrolidin-2-yl)methoxy)quinazolin-4-yl)-3,8-diazabicyclo[3.2.1]octan-8-yl)-3-(1H-pyrazol-1-yl)propan-1-one] was tested, and the IC50 [1] was 0.0001 to 10 µM, the IC50 [2] was 0.0001 to 10 µM and the IC50 [3] was 0.0001 to 10 µM.
`CN1CCC[C@H]1COc1nc(N2C[C@H]3CC[C@@H](C2)N3C(=O)Cc2cnccn2)c2ccc(-c3cc(O)cc4ccccc34)cc2n1` [P-0121, 1-((1R,5S)-3-(7-(3-hydroxynaphthalen-1-yl)-2-(((S)-1-methylpyrrolidin-2-yl)methoxy)quinazolin-4-yl)-3,8-diazabicyclo[3.2.1]octan-8-yl)-2-(pyrazin-2-yl)ethan-1-one] gave an IC50 [1] of 0.0001 to 10 µM, an IC50 [2] of 10 to 100 µM and an IC50 [3] of 10 to 100 µM.
`O=C(N[C@@H]1CCNC1)N1[C@@H]2CC[C@H]1CN(c1nc(OCC34CCCN3CCC4)nc3cc(-c4cc(O)cc5ccccc45)ccc13)C2` [P-0122, (1R,5S)-3-(7-(3-hydroxynaphthalen-1-yl)-2-((tetrahydro-1H-pyrrolizin-7a(5H)-yl)methoxy)quinazolin-4-yl)-N-((R)-pyrrolidin-3-yl)-3,8-diazabicyclo[3.2.1]octane-8-carboxamide] was tested, and the IC50 [1] was 0.0001 to 10 µM, the IC50 [2] was 0.0001 to 10 µM and the IC50 [3] was 0.0001 to 10 µM.
Work on `O=C(N[C@H]1CCNC1)N1[C@@H]2CC[C@H]1CN(c1nc(OCC34CCCN3CCC4)nc3cc(-c4cc(O)cc5ccccc45)ccc13)C2` [P-0123, (1R,5S)-3-(7-(3-hydroxynaphthalen-1-yl)-2-((tetrahydro-1H-pyrrolizin-7a(5H)-yl)methoxy)quinazolin-4-yl)-N-((S)-pyrrolidin-3-yl)-3,8-diazabicyclo[3.2.1]octane-8-carboxamide] yielded an IC50 [1] of 0.0001 to 10 µM, an IC50 [2] of 0.0001 to 10 µM and an IC50 [3] of 0.0001 to 10 µM.
With `CC1(NC(=O)N2[C@@H]3CC[C@H]2CN(c2nc(OCC45CCCN4CCC5)nc4cc(-c5cc(O)cc6ccccc56)ccc24)C3)CCNC1` (stereo partly drawn) [P-0124, (1R,5S)-3-(7-(3-hydroxynaphthalen-1-yl)-2-((tetrahydro-1H-pyrrolizin-7a(5H)-yl)methoxy)quinazolin-4-yl)-N-(3-methylpyrrolidin-3-yl)-3,8-diazabicyclo[3.2.1]octane-8-carboxamide] the IC50 [1] was 0.0001 to 10 µM, the IC50 [2] was 0.0001 to 10 µM and the IC50 [3] was 0.0001 to 10 µM.
`O=C(NC1CNC1)N1[C@@H]2CC[C@H]1CN(c1nc(OCC34CCCN3CCC4)nc3cc(-c4cc(O)cc5ccccc45)ccc13)C2` [P-0125, (1R,5S)-N-(azetidin-3-yl)-3-(7-(3-hydroxynaphthalen-1-yl)-2-((tetrahydro-1H-pyrrolizin-7a(5H)-yl)methoxy)quinazolin-4-yl)-3,8-diazabicyclo[3.2.1]octane-8-carboxamide] showed an IC50 [1] of 0.0001 to 10 µM, an IC50 [2] of 0.0001 to 10 µM and an IC50 [3] of 0.0001 to 10 µM.
`O=C(Nc1cn[nH]c1)N1[C@@H]2CC[C@H]1CN(c1nc(OCC34CCCN3CCC4)nc3cc(-c4cc(O)cc5ccccc45)ccc13)C2` [P-0126, (1R,5S)-3-(7-(3-hydroxynaphthalen-1-yl)-2-((tetrahydro-1H-pyrrolizin-7a(5H)-yl)methoxy)quinazolin-4-yl)-N-(1H-pyrazol-4-yl)-3,8-diazabicyclo[3.2.1]octane-8-carboxamide] gave an IC50 [1] of 0.0001 to 10 µM, an IC50 [2] of 0.0001 to 10 µM and an IC50 [3] of 0.0001 to 10 µM.
In the case of `O=C(NCC1CCNC1)N1[C@@H]2CC[C@H]1CN(c1nc(OCC34CCCN3CCC4)nc3cc(-c4cc(O)cc5ccccc45)ccc13)C2` (stereo partly drawn) [P-0127, (1R,5S)-3-(7-(3-hydroxynaphthalen-1-yl)-2-((tetrahydro-1H-pyrrolizin-7a(5H)-yl)methoxy)quinazolin-4-yl)-N-(pyrrolidin-3-ylmethyl)-3,8-diazabicyclo[3.2.1]octane-8-carboxamide], the IC50 [1] is reported as 0.0001 to 10 µM, the IC50 [2] is reported as 0.0001 to 10 µM and the IC50 [3] is reported as 0.0001 to 10 µM.
